Measurements published in patent US11554115B2, “Quinoline derivative for treatment of triple-negative breast cancer” (CHIA TAI TIANQING PHARMACEUTICAL GROUP CO., LTD., priority 2018, dated 2023).
Where a name gives a salt, the structure may show the parent alone.

Tested on: advanced or metastatic triple-negative breast cancer (ER-negative, PR-negative, HER2-negative)
Test: Clinical trial in patients with advanced or metastatic triple-negative breast cancer
Format: in vivo, human
Details: patients aged ≥18 years; capsules alone or in combination with chemotherapy; 12 mg once daily, two-week treatment, one-week rest

COc1cc2c(Oc3ccc4[nH]c(C)cc4c3F)ccnc2cc1OCC1(N)CC1 [1-[[[4-(4-fluoro-2-methyl-1H-indol-5-yl)oxy-6-methoxyquinolin-7-yl]oxy]methyl]cyclopropylamine dihydrochloride] was tested, and the “efficacy for the treatment of triple-negative breast cancer” value was “effective”.
